Laboratory results reported in patent US6511993B1, “Metalloprotease inhibitors” (priority 1999, dated 2003).
Counter-ions that a name gives are not always drawn.

Assays:
MMP-3 = molecular target: T1, MMP-3 (Homo sapiens, UniProt P08254); assay: Inhibition of MMP-3, fluorogenic peptide cleavage; format: biochemical; conditions: catalytic domain MMP-3, 1 nM enzyme, 5 μM substrate
T1 construct: Catalytic domains MMP-2, MMP-3 and MMP-9 were prepared; made in house
Procedure: (§1) The biological activities of the compounds of the present invention were determined by the following test methods, which are based on the ability of the compounds to inhibit the cleavage of various fluorogenic peptides by MMPs 1, 2, 3, 9, 13 and 14.
(§2) The assays for MMPs 2, 3, 9 and 14 are based upon the original protocol described in Fed. Euro. Biochem. Soc., 1992, 296, 263, with the minor modifications described below.
(§3) Inhibition of MMP-2, MMP-3 and MMP-9
(§4) Catalytic domains MMP-2, MMP-3 and MMP-9 were prepared in Pfizer Central Research laboratories in a standard manner from sources known to the skilled person, including some of the references mentioned herein. A stock solution of MMP-2, MMP-3 or MMP-9 (1 μM) was activated by the addition of APMA. For MMP-2 and MMP-9, a final concentration of 1 mM APMA was added, followed by incubation for 1 hour at 37° C. MMP-3 was activated by the addition of 2 mM APMA, followed by incubation for 3 hours at 37° C. The enzymes were then diluted in Tris-HCl assay buffer (100 mM Tris, 100 mM NaCl, 10 mM CaCl2 and 0.16% Brij 35, pH 7.5) to a concentration of 10 nM. The final concentration of enzyme used in the assays was 1 nM.
(§5) The fluorogenic substrate used in this screen was Mca-Arg-Pro-Lys-Pro-Tyr-Ala-Nva-Trp-Met-Lys(Dnp)-NH2 (Bachem Ltd., Essex, UK) as originally described in J. Biol. Chem., 1994, 269, 20952. This substrate was selected because it has a balanced hydrolysis rate against MMPs 2, 3 and 9 (kcat/km of 54,000, 59,400 and 55,300 s^−1 M^−1 respectively). The final substrate concentration used in the assay was 5 μM.
(§6) Determination of Enzyme Inhibition
(§7) The test compound was dissolved in dimethyl sulphoxide and diluted with assay buffer so that no more than 1% dimethyl sulphoxide was present. Test compound and enzyme were added to each well of a 96 well plate and allowed to equilibrate for 15 minutes at 37° C. in an orbital shaker prior to the addition of substrate. Plates were then incubated for 1 hour at 37° C., prior to determination of fluorescence using a fluorimeter (Fluostar; BMG LabTechnologies, Aylesbury, UK) at an excitation wavelength of 328 nm and emission wavelength of 393 nm. The potency of inhibition was measured from the amount of substrate cleavage obtained using a range of test compound concentrations and, from the resulting dose-response curve, an IC50 value (the concentration of inhibitor required to inhibit 50% of the enzyme activity) was calculated.

MMP-2 = MMP-2 (Homo sapiens, UniProt P08253); assay: Inhibition of MMP-2, fluorogenic peptide cleavage; format: biochemical; conditions: catalytic domain MMP-2, 1 nM enzyme, 5 μM substrate
MMP-2, sequence (P08253 whole entry, the tested form may be a part): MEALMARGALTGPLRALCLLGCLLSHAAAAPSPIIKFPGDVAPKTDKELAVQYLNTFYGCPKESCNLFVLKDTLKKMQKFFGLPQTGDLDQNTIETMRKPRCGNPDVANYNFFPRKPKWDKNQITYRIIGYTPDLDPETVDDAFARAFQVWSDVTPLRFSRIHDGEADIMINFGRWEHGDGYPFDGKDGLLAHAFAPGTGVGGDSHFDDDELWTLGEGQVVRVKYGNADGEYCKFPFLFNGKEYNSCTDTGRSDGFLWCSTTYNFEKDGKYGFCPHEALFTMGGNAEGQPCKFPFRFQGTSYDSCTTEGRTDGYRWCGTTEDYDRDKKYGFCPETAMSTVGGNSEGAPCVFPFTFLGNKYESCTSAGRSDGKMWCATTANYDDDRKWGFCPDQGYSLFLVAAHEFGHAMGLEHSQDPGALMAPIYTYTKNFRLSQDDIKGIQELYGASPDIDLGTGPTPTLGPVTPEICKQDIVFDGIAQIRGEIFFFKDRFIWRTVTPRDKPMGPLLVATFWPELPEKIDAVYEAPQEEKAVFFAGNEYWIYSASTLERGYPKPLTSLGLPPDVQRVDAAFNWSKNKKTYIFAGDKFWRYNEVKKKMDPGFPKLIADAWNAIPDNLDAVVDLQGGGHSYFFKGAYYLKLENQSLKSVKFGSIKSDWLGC
Procedure: as §1, §2, §3, §4, §5, §6, §7

MMP-1 = molecular target: T2, MMP-1 (Homo sapiens, UniProt P03956); assay: Inhibition of MMP-1, fluorogenic peptide cleavage; format: biochemical; conditions: catalytic domain MMP-1, 1 nM enzyme, 10 μM substrate
T2 construct: Catalytic domain MMP-1 was prepared; made in house
T2 sequence (P03956 100-269 limits assumed): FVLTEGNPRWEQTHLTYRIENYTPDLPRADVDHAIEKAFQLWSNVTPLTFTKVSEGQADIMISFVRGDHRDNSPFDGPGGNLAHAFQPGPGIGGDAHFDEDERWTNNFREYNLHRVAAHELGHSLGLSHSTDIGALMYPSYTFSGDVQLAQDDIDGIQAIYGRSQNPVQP
Procedure: as §1
Catalytic domain MMP-1 was prepared in Pfizer Central Research laboratories in a standard manner from sources known to the skilled person, including some of the references mentioned herein. A stock solution of MMP-1 (1 μM) was activiated by the addition of aminophenylmercuric acetate (APMA), at a final concentration of 1 mM, for 20 minutes at 37° C. MMP-1 was then diluted in Tris-HCl assay buffer (50 mM Tris, 200 mM NaCl, 5 mM CaCl2, 20 μM ZnSO4 and 0.05% Brij 35, pH 7.5) to a concentration of 10 nM. The final concentration of enzyme used in the assay was 1 nM.
The fluorogenic substrate used in this assay was Dnp-Pro-β-cyclohexyl-Ala-Gly-Cys(Me)-His-Ala-Lys-(N-Me-Ala)-NH2 as originally described in Anal. Biochem., 1993, 212, 58. The final substrate concentration used in the assay was 10 μM.
as §6
as §7, with “C.” for “C.,”, “fluorescence (substrate cleavage)” for “fluorescence”, “355” for “328”, “440” for “393”, “IC50,” for “IC50”

MMP-14 = molecular target: T3, MMP-14 (Homo sapiens, UniProt P50281); assay: Inhibition of MMP-14, fluorogenic peptide cleavage; format: biochemical; conditions: catalytic domain MMP-14, 1 nM enzyme
T3 construct: Catalytic domain MMP-14 was prepared; made in house
Procedure: as §1, §2
Catalytic domain MMP-14 was prepared in Pfizer Central Research laboratories in a standard manner from sources known to the skilled person, including some of the references mentioned herein. A 10 μM enzyme stock solution was activated for 20 minutes at 25° C. following the addition of 5 μg/ml of trypsin (Sigma, Dorset, UK). The trypsin activity was then neutralised by the addition of 50 μg/ml of soyabean trypsin inhibitor (Sigma, Dorset, UK), prior to dilution of this enzyme stock solution in Tris-HCl assay buffer (100 mM Tris, 100 mM NaCl, 10 mM CaCl2, 0.16% Brij 35, pH 7.5) to a concentration of 10 nM. The final concentration of enzyme used in the assay was 1 nM.
The fluorogenic substrate used in this screen was Mca-Pro-Leu-Gly-Leu-Dpa-Ala-Arg-NH2 (Bachem Ltd., Essex, UK) as described in J. Biol. Chem., 1996, 271, 17119.
Determination of enzyme inhibition
This was performed in the same manner as described for MMPs 2, 3 and 9.

MMP-9 = MMP-9 (Homo sapiens, UniProt P14780); assay: Inhibition of MMP-9, fluorogenic peptide cleavage; format: biochemical; conditions: catalytic domain MMP-9, 1 nM enzyme, 5 μM substrate
MMP-9, sequence (P14780 whole entry, the tested form may be a part): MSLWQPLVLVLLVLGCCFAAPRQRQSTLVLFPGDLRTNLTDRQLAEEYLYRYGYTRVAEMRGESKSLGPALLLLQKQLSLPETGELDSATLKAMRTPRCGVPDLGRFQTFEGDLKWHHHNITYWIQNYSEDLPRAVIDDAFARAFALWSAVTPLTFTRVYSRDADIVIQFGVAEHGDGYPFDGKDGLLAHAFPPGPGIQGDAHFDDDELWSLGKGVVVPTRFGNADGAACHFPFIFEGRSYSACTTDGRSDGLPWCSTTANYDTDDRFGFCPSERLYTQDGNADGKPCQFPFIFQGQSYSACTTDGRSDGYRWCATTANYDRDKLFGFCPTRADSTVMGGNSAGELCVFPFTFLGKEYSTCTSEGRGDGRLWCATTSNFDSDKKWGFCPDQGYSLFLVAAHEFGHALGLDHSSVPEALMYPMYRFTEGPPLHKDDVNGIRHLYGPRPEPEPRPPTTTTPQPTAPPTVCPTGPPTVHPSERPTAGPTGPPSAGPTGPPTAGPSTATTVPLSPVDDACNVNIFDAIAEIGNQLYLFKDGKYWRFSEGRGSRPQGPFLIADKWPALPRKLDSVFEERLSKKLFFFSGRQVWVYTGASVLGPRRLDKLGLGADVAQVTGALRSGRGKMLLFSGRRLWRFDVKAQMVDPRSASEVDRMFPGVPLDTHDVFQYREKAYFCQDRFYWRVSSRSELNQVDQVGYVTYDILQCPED
Procedure: as §1, §2, §3, §4, §5, §6, §7

T1 sequence (P08254 100-272 limits assumed): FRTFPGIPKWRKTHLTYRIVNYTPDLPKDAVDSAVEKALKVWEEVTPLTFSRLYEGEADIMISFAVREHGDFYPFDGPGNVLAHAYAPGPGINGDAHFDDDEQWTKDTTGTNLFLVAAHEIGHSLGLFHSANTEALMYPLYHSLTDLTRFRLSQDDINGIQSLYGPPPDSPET

Compound	melting point	IC50 (MMP-3)	IC50 (MMP-2)	IC50 (MMP-1)	IC50 (MMP-14)	IC50 (MMP-9)
CNCc1cccc(-c2ccc(C3CCN(S(=O)(=O)C4(C(=O)NO)CCOCC4)CC3)cc2C)c1.Cl	213 to 214 °C	–	–	–	–	–
Cc1cc(C2CCN(S(=O)(=O)C3(C(=O)NO)CCN(C)CC3)CC2)ccc1-c1cccc(OCCO)n1 [Example 7, N-Hydroxy 4-{[4-(4-{6-[2-hydroxyethoxy]pyridin-2-yl}-3-methylphenyl)piperidin-1-yl]sulphonyl}-1-methyl-piperidine-4-carboxamide]	–	< 10 nM	> 100 nM	> 1000 nM	> 2000 nM	> 70 nM
Cc1cc(C2CCN(S(=O)(=O)C3(C(=O)NO)CCOCC3)CC2)ccc1-c1cccc(OC[C@H](O)CO)n1 [Example 5, N-Hydroxy 4-{[4-(4-{6-[(2R)-2,3-dihydroxy-1-propoxy]pyridin-2-yl}-3-methylphenyl)piperidin-1-yl]sulphonyl}tetrahydro-2H-pyran-4-carboxamide]	125 to 130 °C	< 10 nM	> 100 nM	> 1000 nM	> 2000 nM	> 70 nM
Cc1cc(C2CCN(S(=O)(=O)C3(C(=O)NO)CCOCC3)CC2)ccc1-c1cccc(OCCN)c1.Cl [Example 14, N-Hydroxy 4-{[4-(-4-{3-[2-aminoethoxy]phenyl}-3-methylphenyl)piperidin-1-yl]sulphonyl}tetrahydro-2H-pyran-4-carboxamide hydrochloride]	208 to 210 °C	< 10 nM	> 100 nM	> 1000 nM	> 2000 nM	> 70 nM
COc1cccc(-c2ccc(C3CCN(S(=O)(=O)C4(C(=O)NO)CC(O)C(O)C4)CC3)cc2C)c1 (stereo not drawn) [Example 25, (1α,3β,4β)-N,3,4-trihydroxy-1-{4-[4-(3-methoxyphenyl)-3-methylphenyl]piperidin-1-ylsulfonyl}cyclopentanecarboxamide]	188 to 189 °C	–	–	–	–	–
Cc1cc(C2CCN(S(=O)(=O)C(C)(C)C(=O)NO)CC2)ccc1-c1cccc(OC[C@@H](O)CO)c1 [Example 8, N-Hydroxy 2-[4-(4-{3-[(2S)-2,3-dihydroxy-1-propoxy]phenyl}-3-methylphenyl)-piperidin-1-ylsulphonyl]-2-methylpropanamide]	152 to 154 °C	–	–	–	–	–
Cc1cc(C2CCN(S(=O)(=O)C3(C(=O)NO)CCOCC3)CC2)ccc1-c1cccc(OC[C@@H](O)CO)c1 [Example 10, N-Hydroxy 4-{4-[4-(3-{(2S)-2-hydroxy-2-hydroxymethyl}ethoxyphenyl)-3-methylphenyl]-piperidin-1-ylsulphonyl}-tetrahydro-2H-pyran-4-carboxamide]	–	< 10 nM	> 100 nM	> 1000 nM	> 2000 nM	> 70 nM
COc1cccc(-c2ccc(C3CCN(S(=O)(=O)C4(C(=O)NO)CC(O)C(O)C4)CC3)cc2C)c1 (stereo not drawn) [Example 24, (1α,3α,4α)-N,3,4-trihydroxy-1-{4-[4-(3-methoxyphenyl)-3-methylphenyl]piperidin-1-ylsulfonyl}cyclopentanecarboxamide]	201 to 202 °C	–	–	–	–	–
Cc1cc(C2CCN(S(=O)(=O)C3(C(=O)NO)CCOCC3)CC2)ccc1-c1cccc(CN2CCOCC2)c1 [Example 17, N-Hydroxy 4-{[4-(3-methyl-4-{3-[4-morpholinylmethyl]}phenyl)piperidin-1-yl]sulphonyl}tetrahydro-2H-pyran-4-carboxamide]	177 to 179 °C	–	–	–	–	–
Cc1cc(C2CCN(S(=O)(=O)C3(C(=O)NO)CCOCC3)CC2)ccc1-c1cccc(OCCO)n1 [Example 3, N-Hydroxy 4-{[4-(4-{6-[2-hydroxyethoxy]pyridin-2-yl}-3-methylphenyl)piperidin-1-yl]sulphonyl}tetrahydro-2H-pyran-4-carboxamide]	–	< 10 nM	> 100 nM	> 1000 nM	> 2000 nM	> 70 nM
Cc1cc(C2CCN(S(=O)(=O)C3(C(=O)NO)CCNCC3)CC2)ccc1-c1cccc(OCCO)n1 [Example 6, N-Hydroxy 4-{[4-(4-{6-[2-hydroxyethoxy]pyridin-2-yl}-3-methylphenyl)piperidin-1-yl]sulphonyl}-piperidine-4-carboxamide dihydrochloride]	–	< 10 nM	> 100 nM	> 1000 nM	> 2000 nM	> 70 nM
CCOc1cccc(-c2ccc(C3CCN(S(=O)(=O)C4(C(=O)NO)CC(O)C(O)C4)CC3)cc2C)n1 (stereo not drawn) [Example 22, (1α,3α,4α)-1-({4-[4-(6-ethoxypyridin-2-yl)-3-methylphenyl]piperidin-1-yl}sulfonyl)-N,3,4-trihydroxycyclopentanecarboxamide]	204 to 205 °C	–	–	–	–	–
Cc1cc(C2CCN(S(=O)(=O)C3(C(=O)NO)CCOCC3)CC2)ccc1-c1cccc(OC[C@@H](O)CO)n1 [Example 4, N-Hydroxy 4-{[4-(4-{6-[(2S)-2,3-dihydroxy-1-propoxy]pyridin-2-yl}-3-methylphenyl)piperidin-1-yl]sulphonyl}tetrahydro-2H-pyran-4-carboxamide]	–	< 10 nM	> 100 nM	> 1000 nM	> 2000 nM	> 70 nM
Cc1cc(C2CCN(S(=O)(=O)C3(C(=O)NO)CC(O)C(O)C3)CC2)ccc1-c1cccc(OCCO)n1 (stereo not drawn) [Example 21, (1α,3α,4α)-N,3,4-trihydroxy-1-[(4-{4-[6-(2-hydroxyethoxy)pyridin-2-yl]-3-methylphenyl}piperidin-1-yl)sulfonyl]cyclopentanecarboxamide]	215 to 218 °C	–	–	–	–	–
CCOc1cccc(-c2ccc(C3CCN(S(=O)(=O)C4(C(=O)NO)CC(O)C(O)C4)CC3)cc2C)n1 (stereo not drawn) [Example 23, (1α,3β,4β)-1-({4-[4-(6-ethoxypyridin-2-yl)-3-methylphenyl]piperidin-1-yl}sulfonyl)-N, 3,4-trihydroxycyclopentanecarboxamide]	196 to 197 °C	–	–	–	–	–
